Data as given in patent US12606541B2, “PPARg modulators and methods of use” (Eisai R&D Management Co., Ltd., priority 2020, dated 2026).

What follows are molecules tested against T1, His6-TEV-PPARγ-(234-505) (Homo sapiens, UniProt P37231) (assay: TR-FRET Assay to Measure Co-R Peptide Recruitment to PPARγ). Settings: Co-R peptide (SMRT-ID2) recruitment; top final concentration 20 μM; read-out: TR-FRET i-Ag; AC50.
T1 construct: The His6-TEV-PPARγ-(234-505) protein for assay was expressed and purified; TEV cleavage site (N); made in house
T1 sequence (P37231 234-505): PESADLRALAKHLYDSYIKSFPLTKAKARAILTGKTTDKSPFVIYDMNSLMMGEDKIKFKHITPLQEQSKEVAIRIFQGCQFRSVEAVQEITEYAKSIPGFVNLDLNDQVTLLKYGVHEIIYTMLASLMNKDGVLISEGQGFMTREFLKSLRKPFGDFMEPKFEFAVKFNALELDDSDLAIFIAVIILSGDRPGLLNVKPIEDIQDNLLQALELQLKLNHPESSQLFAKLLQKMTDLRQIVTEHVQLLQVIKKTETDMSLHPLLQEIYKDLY
Type: biochemical
Description: TR-FRET Assay to Measure Co—R Peptide Recruitment to PPARγ
The 2× detection solution contained anti-6×His-Terbium antibody (CisBio) and FITC labeled Co—R peptide (SMRT-ID2 from New England Peptide) at final concentrations of 5 and 200 nM respectively.
In these assay plates, the positive control in column 24 contained 500 nM (final) T0070907 and the negative control in column 23 contained an identical volume of DMSO. Then, 5 μL of 2+ protein working stock or controls were added to the plate and incubated for 20 minutes at room temperature. Reagents additions were performed with either a Combi (Thermo) or Mantis (Formulatory) pipetting device. The incubation was followed by addition of 5 μL of the 2× detection solution. Plates were covered, centrifuged, and incubated for an additional hour. The TR-FRET data was recorded with an Envision plate reader (Perkin Elmer), using settings recommended by Thermo Fisher. The TR-FRET signal of the positive and negative control's recruitment of FITC-Co—R peptide was used to normalize the TR-FRET signal to percent response and to determine the assay Z prime. Experiments were performed in triplicate and analyzed in GraphPad Prism 7.

Which AC50 does the source give for COc1cc(-c2cc(C(=O)N3C(C)CC(C(=O)NCc4cccc(Cl)c4)CC3C)n[nH]2)c(Cl)cn1 (mixture of isomers) [Example 274, 1-(5-(5-chloro-2-methoxypyridin-4-yl)-1H-pyrazole-3-carbonyl)-N-(3-chlorobenzyl)-2,6-dimethylpiperidine-4-carboxamide] here?
Its AC50 is 20 nM.

Same assay, conditions: Co-R peptide recruitment to PPARγ; read-out: TR-FRET AC50

With COc1cc(-c2cc(C(=O)N3C[C@H]4CC[C@@H]3CC4C(=O)NCc3cccc(Cl)c3)n[nH]2)c(F)cn1 (relative stereo) [(1R,4S,5R*)—N-[(3-chlorophenyl)methyl]-2-[5-(5-fluoro-2-methoxypyridin-4-yl)-1H-pyrazole-3-carbonyl]-2-azabicyclo[2.2.2]octane-5-carboxamide] as the molecule, how does the AC50 read?
The AC50 was greater than 1000 nM.

How did the AC50 turn out when COc1cc(-c2cc(C(=O)N3C[C@@H]4C[C@H]3CC4C(=O)NCc3cccc(Cl)c3)n[nH]2)c(F)cn1 (relative stereo) [(1S,4R,5R*)—N-[(3-chlorophenyl)methyl]-2-[5-(5-fluoro-2-methoxypyridin-4-yl)-1H-pyrazole-3-carbonyl]-2-azabicyclo[2.2.1]heptane-5-carboxamide] was run?
The AC50 was greater than 1000 nM.

For COc1cc(-c2cc(C(=O)N3CCC(C(=O)NC4CC[C@H]5[C@H](CCN5C)C4)CC34CC4)n[nH]2)c(F)cn1 (relative stereo) [(7R*)—N-[(3aR,7aS)-1-methyl-octahydro-1H-indol-5-yl]-4-[5-(5-fluoro-2-methoxypyridin-4-yl)-1H-pyrazole-3-carbonyl]-4-azaspiro[2.5]octane-7-carboxamide], which AC50 is on record?
Its AC50 is greater than 1000 nM.

COc1cc(-c2cc(C(=O)N3CC[C@@]4(C(=O)NCc5cccc(Cl)c5)C[C@@H]34)n[nH]2)c(Cl)cn1 (relative stereo) [rel-(1R,5R)-2-[5-(5-chloro-2-methoxypyridin-4-yl)-1H-pyrazole-3-carbonyl]-N-[(3-chlorophenyl)methyl]-2-azabicyclo[3.1.0]hexane-5-carboxamide] was tested. Which AC50 did it give?
Its AC50 is greater than 1000 nM.

For CCOc1cc(-c2cc(C(=O)N3CCC(C(=O)N[C@H]4CC[C@@](O)(C(F)(F)F)CC4)CC34CC4)n[nH]2)c(F)cn1 (single isomer, unassigned), which AC50 is on record?
Its AC50 is greater than 1000 nM.

For COc1cc(-c2cc(C(=O)N3C[C@H]4C[C@@H]3CC4C(=O)N[C@H]3CC[C@@](O)(C(F)(F)F)CC3)n[nH]2)c(F)cn1 (single isomer, unassigned), which AC50 is on record?
The AC50 was greater than 1000 nM.

For CCOc1cc(-c2cc(C(=O)N3CCC(C(=O)N[C@H]4CC[C@@](OC)(C(F)(F)F)CC4)CC34CC4)n[nH]2)c(F)cn1 (single isomer, unassigned), which AC50 is on record?
The AC50 was greater than 1000 nM.

Which AC50 does the source give for Cc1cc(-c2cc(C(=O)N3CCC(C(=O)N[C@H]4CC[C@@](O)(C(F)(F)F)CC4)CC34CC4)n[nH]2)c([C@@H](C)O)cn1 (single isomer, unassigned) here?
The AC50 was greater than 1000 nM.

How did the AC50 turn out when Cc1cc(-c2cc(C(=O)N3CCC(C(=O)N[C@H]4CC[C@@](O)(C(F)(F)F)CC4)CC34CC4)n[nH]2)c([C@H](C)O)cn1 (single isomer, unassigned) was run?
The AC50 was greater than 1000 nM.

With CC(C)Oc1cc(-c2cc(C(=O)N3CCC(C(=O)N[C@H]4CC[C@@](O)(C(F)(F)F)CC4)CC34CC4)n[nH]2)c(F)cn1 (single isomer, unassigned) as the molecule, how does the AC50 read?
The AC50 was greater than 1000 nM.

COc1cc(-c2cc(C(=O)N3CCC(C(=O)N[C@H]4CC[C@@]5(CCO5)CC4)CC34CC4)n[nH]2)c(F)cn1 (single isomer, unassigned) was tested. Which AC50 did it give?
The AC50 was greater than 1000 nM.

Which AC50 does the source give for CS(=O)(=O)CCN1CCN(C(=O)C2CCN(C(=O)c3cc(-c4ccncc4)[nH]n3)CC2)CC1 [1-(2-methanesulfonylethyl)-4-{1-[5-(pyridin-4-yl)-1H-pyrazole-3-carbonyl]piperidine-4-carbonyl}piperazine] here?
The AC50 was greater than 1000 nM.

For CC1CCC(NC(=O)C2CCN(C(=O)c3cc(-c4ccnc(C#N)c4)[nH]n3)CC2)CC1 (stereo not shown) [1-[5-(2-cyanopyridin-4-yl)-1H-pyrazole-3-carbonyl]-N-(4-methylcyclohexyl)piperidine-4-carboxamide], which AC50 is on record?
Its AC50 is greater than 1000 nM.

Which AC50 does the source give for CC1CCC(NC(=O)C2CCN(C(=O)c3cc(-c4ccnc(OC5CC5)c4)[nH]n3)CC2)CC1 (stereo not shown) [1-[5-(2-cyclopropoxypyridin-4-yl)-1H-pyrazole-3-carbonyl]-N-(4-methylcyclohexyl)piperidine-4-carboxamide] here?
Its AC50 is greater than 1000 nM.

For CC1CCC(NC(=O)C2CCN(C(=O)c3cc(-c4ccnc(C5CC5)c4)[nH]n3)CC2)CC1 (stereo not shown) [1-[5-(2-cyclopropylpyridin-4-yl)-1H-pyrazole-3-carbonyl]-N-(4-methylcyclohexyl)piperidine-4-carboxamide], which AC50 is on record?
The AC50 was greater than 1000 nM.

For COc1nccc(-c2cc(C(=O)N3CCC(C(=O)NC4CCC(C)CC4)CC3)n[nH]2)c1C (stereo not shown) [1-[5-(2-methoxy-3-methylpyridin-4-yl)-1H-pyrazole-3-carbonyl]-N-(4-methylcyclohexyl)piperidine-4-carboxamide], which AC50 is on record?
Its AC50 is greater than 1000 nM.

With COc1cc(-c2cc(C(=O)N3CCC(C)(C(=O)NC4CCC(C)CC4)CC3)n[nH]2)ccn1 (stereo not shown) [1-[5-(2-methoxypyridin-4-yl)-1H-pyrazole-3-carbonyl]-4-methyl-N-(4-methylcyclohexyl)piperidine-4-carboxamide] as the molecule, how does the AC50 read?
The AC50 was greater than 1000 nM.

Which AC50 does the source give for COc1cc(-c2cc(C(=O)N3CCC(C(=O)NC4CCC(=O)CC4)CC3)n[nH]2)ccn1 [1-[5-(2-methoxypyridin-4-yl)-1H-pyrazole-3-carbonyl]-N-(4-oxocyclohexyl)piperidine-4-carboxamide] here?
The AC50 was greater than 1000 nM.

For CC1CCC(NC(=O)C2CCN(C(=O)c3cc(-c4ccncc4C#N)[nH]n3)CC2)CC1 (stereo not shown) [1-[5-(3-cyanopyridin-4-yl)-1H-pyrazole-3-carbonyl]-N-(4-methylcyclohexyl)piperidine-4-carboxamide], which AC50 is on record?
Its AC50 is greater than 1000 nM.

For CC1CCC(NC(=O)C2CCN(C(=O)c3cc(-c4ccncc4F)[nH]n3)CC2)CC1 (stereo not shown) [1-[5-(3-fluoropyridin-4-yl)-1H-pyrazole-3-carbonyl]-N-(4-methylcyclohexyl)piperidine-4-carboxamide], which AC50 is on record?
The AC50 was greater than 1000 nM.

How did the AC50 turn out when COc1cc(-c2cc(C(=O)N3CCC(C(=O)NC4CCS(=O)(=O)c5ccccc54)CC3)n[nH]2)c(Cl)cn1 (stereo not shown) [1-[5-(5-chloro-2-methoxypyridin-4-yl)-1H-pyrazole-3-carbonyl]-N-(1,1-dioxo-3,4-dihydro-2H-1λ^6-benzothiopyran-4-yl)piperidine-4-carboxamide] was run?
The AC50 was greater than 1000 nM.

For COc1cc(-c2cc(C(=O)N3CCC(C(=O)NC4COCOC4)CC3)n[nH]2)c(Cl)cn1 [1-[5-(5-chloro-2-methoxypyridin-4-yl)-1H-pyrazole-3-carbonyl]-N-(1,3-dioxan-5-yl)piperidine-4-carboxamide], which AC50 is on record?
Its AC50 is greater than 1000 nM.

How did the AC50 turn out when COc1cc(-c2cc(C(=O)N3CCC(C(=O)Nc4nc(C)cn4C)CC3)n[nH]2)c(Cl)cn1 [1-[5-(5-chloro-2-methoxypyridin-4-yl)-1H-pyrazole-3-carbonyl]-N-(1,4-dimethyl-1H-imidazol-2-yl)piperidine-4-carboxamide] was run?
The AC50 was greater than 1000 nM.

COc1cc(-c2cc(C(=O)N3CCC(C(=O)NC4CCN(C5CCC5)CC4)CC3)n[nH]2)c(Cl)cn1 [1-[5-(5-chloro-2-methoxypyridin-4-yl)-1H-pyrazole-3-carbonyl]-N-(1-cyclobutylpiperidin-4-yl)piperidine-4-carboxamide] was tested. Which AC50 did it give?
The AC50 was greater than 1000 nM.

COc1cc(-c2cc(C(=O)N3CCC(C(=O)Nc4nc5ccccc5n4C)CC3)n[nH]2)c(Cl)cn1 [1-[5-(5-chloro-2-methoxypyridin-4-yl)-1H-pyrazole-3-carbonyl]-N-(1-methyl-1H-1,3-benzodiazol-2-yl)piperidine-4-carboxamide] was tested. Which AC50 did it give?
The AC50 was greater than 1000 nM.

Which AC50 does the source give for COc1cc(-c2cc(C(=O)N3CCC(C(=O)NC4COC(C)(C)OC4)CC3)n[nH]2)c(Cl)cn1 [1-[5-(5-chloro-2-methoxypyridin-4-yl)-1H-pyrazole-3-carbonyl]-N-(2,2-dimethyl-1,3-dioxan-5-yl)piperidine-4-carboxamide] here?
The AC50 was greater than 1000 nM.

Which AC50 does the source give for COc1cc(-c2cc(C(=O)N3CCC(C(=O)NC4CS(=O)(=O)Cc5ccccc54)CC3)n[nH]2)c(Cl)cn1 (stereo not shown) [1-[5-(5-chloro-2-methoxypyridin-4-yl)-1H-pyrazole-3-carbonyl]-N-(2,2-dioxo-3,4-dihydro-1H-2λ^6-benzothiopyran-4-yl)piperidine-4-carboxamide] here?
Its AC50 is greater than 1000 nM.

COc1cc(-c2cc(C(=O)N3CCC(C(=O)Nc4cccc(F)c4F)CC3)n[nH]2)c(Cl)cn1 [1-[5-(5-chloro-2-methoxypyridin-4-yl)-1H-pyrazole-3-carbonyl]-N-(2,3-difluorophenyl)piperidine-4-carboxamide] was tested. Which AC50 did it give?
Its AC50 is greater than 1000 nM.

With COc1cc(F)c(NC(=O)C2CCN(C(=O)c3cc(-c4cc(OC)ncc4Cl)[nH]n3)CC2)c(F)c1 [1-[5-(5-chloro-2-methoxypyridin-4-yl)-1H-pyrazole-3-carbonyl]-N-(2,6-difluoro-4-methoxyphenyl)piperidine-4-carboxamide] as the molecule, how does the AC50 read?
The AC50 was greater than 1000 nM.

Same assay, conditions: TR-FRET AC50, Co-R peptide recruitment to PPARγ

For COc1cc(-c2cc(C(=O)N3CCC(C(=O)NC(C)(C)c4ccccc4)CC3)n[nH]2)ccn1 [1-[5-(2-methoxypyridin-4-yl)-1H-pyrazole-3-carbonyl]-N-(2-phenylpropan-2-yl)piperidine-4-carboxamide], which AC50 is on record?
The AC50 was greater than 1000 nM.
